How the values were obtained:
[1] = system: firefly luciferase HCV replicon cells (Huh3-1); experiment: Replicon assay (firefly luciferase HCV replicon cells); type: cell-based, Hepatitis C virus; conditions: for IC50: Hepatitis C virus, 72 h, Huh3-1 replicon cells, 3 days culture, luciferase readout, read-out: Anti-replicon Activity (IC50); for IC50 of antireplicon activity converted to: unit converted assuming liver specific gravity 1 g=1 mL (FIGS. 1 to 3)
Excerpt: As a reporter gene, for example, a gene into which a luciferase gene derived from a firefly is introduced can be used. Specifically, according to the method of Krieger et al. (N. Krieger et al., J. Virology: 75, 4614-24, 2001), a firefly luciferase gene is introduced, in a form fused with a neomycin-resistant gene, immediately downstream of an internal ribosome entry site (IRES) of the HCV gene. After synthesizing the RNA in vitro, it is introduced into suitable cells by, for example, electroporation to obtain firefly luciferase HCV replicon cells. These cells are seeded in wells of 96-well plates, to which a diluted test substance is added, and cultured for several days. The substrate is then added, and the luminescence is measured with a plate reader.
According to the method of Krieger et al. (N. Krieger et al., J. Virology: 75, 4614-24, 2001), a firefly luciferase gene was introduced, in a form fused with a neomycin-resistant gene, immediately downstream of an internal ribosome entry site (TRES) of the HCV gene. After synthesizing the RNA in vitro, it was introduced into Huh7 cells by electroporation and the cells were isolated as G418-resistant clones.
After culturing, the white plates were used for the replicon assay with Steady-Glo Luciferase Assay System (Promega cat. No. E2520). More specifically, 100 μL per well of the reagent was added, it was mixed 3-4 times by pipetting and allowed to stand for 5 minutes, and subsequently the luminescence was measured with a plate reader (EnVision™ 2103 Multilabel Reader).

[2] = Cytotoxicity test (WST-8); type: cell-based; conditions: human, firefly luciferase HCV replicon cells (Huh3-1); Huh3-1 replicon cells, 3 days culture, Cell counting kit-8; read-out: Cytotoxicity WST8 (IC50)
Experimental: The firefly luciferase HCV replicon cells (Huh3-1) were suspended in Dulbecco's MEM (Gibco cat. No. 10,569-010) containing 5% fetal bovine serum (Hyclone cat. No. SH30071.03), seeded at 4500 cells/90 μL/well in 96-well plates, and cultured overnight in 5% CO2 at 37° C. After 20 hours, 10 μL per well of compounds prepared at a concentration 10 times the final concentration were added, and they were further cultured for 3 days.
Two series of assay plates, one series of white plates and another series of clear plates, were prepared and used for the assay.
Clear plates were used for a cytotoxicity test (WST-8). Cytotoxicity was measured using Cell counting kit-8 (Dojindo cat. No. CK04). More specifically, 100 μL of Cell counting kit-8 diluted 10-fold from the stock solution with PBS (SIGMA cat. No. D8537) was added to each well in the aforementioned clear plates from which medium was removed and the plates were incubated at 37° C. for 30 to 60 minutes. Absorbance was measured at a wavelength of 460 nm and a control wavelength of 590 nm by a plate reader (EnVision™ 2103 Multilabel Reader). All values were expressed as differences from the background which was measured with neither cells nor drug and IC50 (50% inhibitory concentration) values of drugs were calculated based on the value when no drug was added defined as 0% inhibition.

[3] = target: CYP3A4 (Homo sapiens (Human), UniProt P08684); experiment: biochemical; type: in vitro ADME; conditions: for IC50: human liver microsomes, midazolam 0.5 μmol/L; for CYP Inhibition Time Dependent (TDI) (untreated/Pre-incubation), CYP3A4: microsomes
Chain of CYP3A4 (P08684 whole entry): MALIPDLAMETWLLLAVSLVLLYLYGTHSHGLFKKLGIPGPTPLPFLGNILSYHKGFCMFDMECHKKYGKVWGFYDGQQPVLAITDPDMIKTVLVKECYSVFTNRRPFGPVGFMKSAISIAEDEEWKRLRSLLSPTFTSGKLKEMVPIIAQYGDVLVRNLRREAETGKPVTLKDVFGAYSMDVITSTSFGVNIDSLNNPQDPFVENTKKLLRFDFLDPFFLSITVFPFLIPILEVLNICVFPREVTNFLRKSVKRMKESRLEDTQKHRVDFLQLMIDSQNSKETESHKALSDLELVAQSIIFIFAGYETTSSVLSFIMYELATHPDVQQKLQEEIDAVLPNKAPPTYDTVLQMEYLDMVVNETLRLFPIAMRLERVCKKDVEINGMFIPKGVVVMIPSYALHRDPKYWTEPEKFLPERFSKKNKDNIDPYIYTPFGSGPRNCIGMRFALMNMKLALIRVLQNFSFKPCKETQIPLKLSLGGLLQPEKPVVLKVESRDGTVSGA
Experimental: (§1) <Incubation Mixture> • 100 mM phosphate buffer (pH 7.4) • 0.1 mg/mL of pooled human liver microsomes (male and female mixture, a pool of 50 donors) <NADPH Aqueous Solution> • 10 mM NADPH (final concentration 1 mM NADPH) <Measurement of Metabolite>
Warfarin was used as internal standard (IS).
To a 96 deep well plate was added 2.5 μL, of the test substance solution (×200 concentration), 442.5 μL of Incubation Mixture, and 5 μL of the substrate solution, and the solution was mixed and warmed to 37° C. for 5 minutes. To this incubation solution 50 μL of 10 mM NADPH was added to start the reaction, and incubated at 37° C. for 5 minutes. After the incubation, 100 μL of the Incubation Mixture was removed, added to 150 μL of isopropanol containing IS and mixed. […] The filtrate was used for LC-MS/MS analysis.
To a 96 deep well plate was added 2.5 μL of the test substance solution (×200 concentration), and 442.5 μL of Incubation Mixture, and the solution was mixed and warmed to 37° C. for 5 minutes. To this incubation solution 50 μL of 10 mM NADPH was added and preincubated at 37° C. for 30 minutes. […] After the reaction, 100 μL of the Incubation Mixture was removed, added to 150 μL of isopropanol containing IS and mixed. […] The filtrate was used for LC-MS/MS analysis.
(§2) Based on the metabolite production of the DMSO control group defined as 100, percent inhibitions of the metabolite production in the test substance group were determined, and inhibition curves were plotted at 5 concentrations. The test substance concentration showing 50% inhibition (IC50) was determined from the fitting curve of the inhibition curve.

[4] = target: CYP2C9 (Homo sapiens (Human), UniProt P11712); experiment: biochemical; conditions: for IC50: human liver microsomes, diclofenac 0.2 μmol/L; for TDI Ratio, CYP2C9: microsomes
Chain of CYP2C9 (P11712 whole entry): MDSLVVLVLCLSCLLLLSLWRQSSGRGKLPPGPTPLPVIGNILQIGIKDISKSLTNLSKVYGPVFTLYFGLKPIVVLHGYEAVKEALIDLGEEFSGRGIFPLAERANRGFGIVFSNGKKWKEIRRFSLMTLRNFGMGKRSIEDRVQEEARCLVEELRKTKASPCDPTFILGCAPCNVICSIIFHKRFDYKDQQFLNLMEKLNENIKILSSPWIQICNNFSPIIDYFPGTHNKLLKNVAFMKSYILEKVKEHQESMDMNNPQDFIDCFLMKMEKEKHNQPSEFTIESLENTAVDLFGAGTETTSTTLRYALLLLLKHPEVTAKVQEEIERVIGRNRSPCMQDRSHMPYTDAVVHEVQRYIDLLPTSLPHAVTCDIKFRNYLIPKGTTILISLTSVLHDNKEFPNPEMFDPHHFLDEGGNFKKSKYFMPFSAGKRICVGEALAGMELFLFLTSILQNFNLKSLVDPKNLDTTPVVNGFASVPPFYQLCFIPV
Experimental: Tests were carried out according to the following experiment method.
as §1
After incubation, the concentrations of the produced metabolites were measured using LC-MS/MS (API4000 or 5500QTRAP). Warfarin was used as internal standard (IS). The concentration was calculated using a standard curve created using a metabolite standard solution.
To a 96 deep well plate was added 2.5 μL, of the test substance solution (×200 concentration), 442.5 μL of Incubation Mixture, and 5 μL of the substrate solution, and the solution was mixed and warmed to 37° C. for 5 minutes. To this incubation solution 50 μL of 10 mM NADPH was added to start the reaction, and incubated at 37° C. for 5 minutes. After the incubation, 100 μL of the Incubation Mixture was removed, added to 150 μL of isopropanol containing IS and mixed. This mixture was transferred onto a multi-screen filter, centrifuged at 500×g at 4° C. for 10 minutes. The filtrate was used for LC-MS/MS analysis.
To a 96 deep well plate was added 2.5 μL of the test substance solution (×200 concentration), and 442.5 μL of Incubation Mixture, and the solution was mixed and warmed to 37° C. for 5 minutes. To this incubation solution 50 μL of 10 mM NADPH was added and preincubated at 37° C. for 30 minutes. After the preincubation, 5 μL of the substrate solution was added and the solution was mixed and further incubated at 37° C. for 5 minutes for the reaction. After the reaction, 100 μL of the Incubation Mixture was removed, added to 150 μL of isopropanol containing IS and mixed. This mixture was transferred onto a multi-screen filter, centrifuged at 500×g at 4° C. for 10 minutes. The filtrate was used for LC-MS/MS analysis.
as §2
Time dependent inhibition (TDI) was calculated as a ratio of dividing IC50 of the sample without preincubation treatment by the IC50 value measured after the preincubation treatment.

[5] = Rat PK test (liver concentrations of active metabolites after oral prodrug); type: in vivo, Wistar rat
Experimental: The test was carried out according to the following protocol. • Animal: […] (Method of Analysis) Using LC-MS/MS (API 4000), standard curves for standard compounds were prepared, and the concentrations of the active metabolites No. 5514403 and No. 5526064 at the data points were calculated.

[6] = CYP3A4 (IC50 μM) Pre-incubation, 30 min preincubation with NADPH
[7] = CYP3A4 (IC50 μM) untreated, without preincubation
[8] = CYP2C9 (IC50 μM) Pre-incubation, 30 min preincubation with NADPH
[9] = CYP2C9 (IC50 μM) untreated, without preincubation
[10] = rat liver, 24 hours after dosing, prodrug p.o. 30 mg/kg once a day, 7 days
[11] = rat liver, prodrug p.o. 30 mg/kg once a day, 7 days

Row | Compound | IC50 [1] [µM] | IC50 of antireplicon activity converted to [1] [ng/g] | IC50 at 3 days [2] [µM] | IC50 [3, 6] [µM] | IC50 [3, 7] [µM] | CYP Inhibition Time Dependent (TDI) (untreated/Pre-incubation), CYP3A4 [3] | IC50 [4, 8] [µM] | IC50 [4, 9] [µM] | TDI Ratio, CYP2C9 [4] | concentration of active compound No. 5514403 in the liver [5, 10] [ng/g] | concentration of active metabolite No. 5526064 in the liver [5, 10] [ng/g] | exposure of the liver to the active drugs ([5]; rat, p.o., in comparison with No. 6809532 and No. 6811559) | presence of the active compound No. 5514403 in the liver [5, 11]
1 | CCCCCCCC(F)(F)CCCCCC/C=C/[C@H](C(=O)N[C@@H](Cc1ccc(OCCCC)cc1)C(=O)OC)[C@@](O)(CCOC)C(=O)O [No. 5514403, (E)-(2S,3S)-3-[(S)-2-(4-butoxy-phenyl)-1-methoxycarbonyl-ethylcarbamoyl]-12,12-difluoro-2-hydroxy-2-(2-methoxy-ethyl)-nonadec-4-enoic acid] | 0.0006 | 0.48 | > 1 | 11.9 | 23.8 | 1.98 | 19.6 | 7.7 | 0.39 |  |  |  | 
2 | CCCCCCCC(F)(F)CCCCCC/C=C/[C@H](C(=O)N[C@@H](Cc1ccc(OCCCC)cc1)C(=O)O)[C@@](O)(CCOC)C(=O)O [No. 5526064, (E)-(2S,3S)-3-[(S)-2-(4-butoxy-phenyl)-1-carboxy-ethylcarbamoyl]-12,12-difluoro-2-hydroxy-2-(2-methoxy-ethyl)-nonadec-4-enoic acid] | 0.00215 | 1.44 | > 1 | 11.8 | 16.2 | 1.37 | 24.4 | 12.5 | 0.51 |  |  |  | 
3 | CCCCCCCC(F)(F)CCCCCC/C=C/[C@H](C(=O)N[C@@H](Cc1ccc(OCCCC)cc1)C(=O)OC)[C@@](O)(CCOC)C(=O)OCc1oc(=O)oc1C [No. 6808755, (5-methyl-2-oxo-[1,3]dioxol-4-yl)methyl (E)-(2S,3S)-3-[(S)-2-(4-butoxy-phenyl)-1-methoxycarbonyl-ethylcarbamoyl]-12,12-difluoro-2-hydroxy-2-(2-methoxy-ethyl)-nonadec-4-enoate] |  |  |  |  |  |  |  |  |  | ≥ 100 | ≥ 100 | significantly higher exposure of the liver to the active drugs | 
4 | CCCCCCCC(F)(F)CCCCCC/C=C/[C@H](C(=O)N[C@@H](Cc1ccc(OCCCC)cc1)C(=O)OC)[C@@](O)(CCOC)C(=O)OC [No. 6809532, Methyl (E)-(2S,3S)-3-[(S)-2-(4-butoxy-phenyl)-1-methoxycarbonyl-ethylcarbamoyl]-12,12-difluoro-2-hydroxy-2-(2-methoxy-ethyl)-nonadec-4-enoate, reference compound] |  |  |  |  |  |  |  |  |  |  |  |  | hardly detected
5 | CCCCCCCC(F)(F)CCCCCC/C=C/[C@H](C(=O)N[C@@H](Cc1ccc(OCCCC)cc1)C(=O)OC)[C@@](O)(CCOC)C(=O)OCC(=O)OC [No. 6811559, Methoxycarbonylmethyl (E)-(2S,3S)-3-[(S)-2-(4-butoxy-phenyl)-1-methoxycarbonyl-ethylcarbamoyl]-12,12-difluoro-2-hydroxy-2-(2-methoxy-ethyl)-nonadec-4-enoate, reference compound] |  |  |  |  |  |  |  |  |  |  |  |  | hardly detected
